“Also recorded” adds a separate entry of the source. Ends that are not written are not given here.
How the values were obtained:
[1] = tested on: human umbilical venous endothelial cells (HUVECs); format: cell-based; conditions: HUVECs
Excerpt: CLT1 contains a sequence of three consecutive hydrophobic residues, LII (leucine-isoleucine-isoleucine). This motif is very similar to the VII sequence (V, valine) which causes proteins to form large insoluble aggregates (Esteras-Chopo et al. 2005). […] The ability of CLT1 to aggregate proteins correlates with its cytotoxicity for human umbilical venous endothelial cells (HUVECs).

[2] = tested on: orthotopic MDA-MB-435 xenograft tumors; test: Tumor homing of i.v. injected fluorescein-conjugated peptides, MDA-MB-435 xenografts; format: in vivo, mouse
Excerpt: To determine whether the CLT peptides would recognize clotted plasma proteins in vivo, the peptides were synthesized as fluorescein conjugates and imaged their accumulation in tumors. Mice bearing orthotopic MDA-MB-435 xenograft tumors were intravenously injected with fluorescein-conjugated CLT1 (n=6), CLT2 (n=4), or a control peptide (n=4) with the sequence KAREC (SEQ ID NO: 5).
B16F1 mouse melanoma, Lewis lung carcinoma, C8161 human melanoma, MDA-MB-435 human breast cancer, and PPC-1 human prostate cancer cells (American Type Culture Collection) were maintained in RPMI or DMEM supplemented with 10% FCS. Human tumor cells (1×10^6) were injected into the mammary fat pad or the flank of nude BALB/c nu/nu mice to induce tumors. MMTV PyMT mice were provided by Dr. Robert Oshima (Burnham Institute for Medical Research, La Jolla, Calif.). The MMTV PyMT mice develop breast cancer under the influence of a polyoma middle T antigen driven by the mouse tumor virus promoter (Siegel, P. M., Ryan, E. D., Cardiff, R. D., Muller W. J. (1999) EMBO J., 18, 2149-64). B16F1 tumors induced by injecting 1×10^6 cells subcutaneously were grown in the flank of fibrinogen knock-out mice (Suh, T. T., Holmback, K., Jensen, N. J., Daugherty, C. C., Small, K., Simon, D. I., Potter, S., & Degen, J. L. (1995) Genes Dev. 9, 2020-2033), and of transgenic plasma fibronectin-deficient C57BL/6-Fn(f1/f1) Mx-Cre^+ (Sakai, T., Johnson, K. J., Murozono, M., Sakai, K., Magnuson, M. A., Wieloch, T., Cronberg, T., Isshiki, A., Erickson, H. P., & Fassler R. (2001) Nat. Med. 7, 324-30) and their wild type littermates. Deletion of the fibronectin gene in the liver was induced by poly(I):poly(C) (Yi, M., Sakai, T., Fassler, R., & Ruoslahti, E. (2003) Proc. Natl. Acad. Sci. USA. 100, 11435-11438). Frozen human tissues from clinical breast cancers were provided by the Western Division of the NCI Cooperative Human Tissue Network (Vanderbilt University Medical Center, Nashville, Tenn.).
Peptides were synthesized and conjugated to fluorescein isothiocyanate as described (Laakonen et al. PNAS 2004), and cyclized by exposure to air.
Imaging under a blue light, and examination of the distribution of fluorescein-conjugated peptides after tail vein injection have been described (Hoffman, R. M. (2005) Nature Reviews Cancer 5, 796-806; Laakkonen, P., Akerman, M. E., Biliran, H., Yang, M., Ferrer, F., Karpanen, T., Hoffman, R. M., & Ruoslahti E. (2004) Proc. Natl. Acad. Sci. USA 101, 9381-6).
The imaging methods are briefly described as follows: A Leica fluorescence stereomicroscope, model LZ12, equipped with a 50-W mercury lamp, was used for high-magnification imaging. Selective excitation of GFP was produced through a D425y60 band-pass filter and 470 DCXR dichroic mirror. Emitted fluorescence was collected through a long-pass filter GG475 (Chroma Technology, Brattleboro, Vt.) on a Hamamatsu C5810 3-chip cooled color charge-coupled device camera (Hamamatsu Photonics Systems, Bridgewater, N.J.). Images were processed for contrast and brightness and analyzed with the use of IMAGE PRO PLUS 3.1 software (Media Cybernetics, Silver Springs, Md.). Images of 1,024×724 pixels were captured directly on an IBM PC or continuously through video output on a high-resolution Sony VCR model SLV-R1000 (Sony, Tokyo). Imaging at lower magnification that visualized the entire animal was carried out in a light box illuminated by blue light fiber optics (Lightools Research, Encinitas, Calif.) and imaged by using the thermoelectrically cooled color charge-coupled device camera, as described above (Yang, M., Baranov, E., Jiang, P., Sun, F-X., Li, X-M., Li, L., Hasegawa, S., Bouvet, M., Al-Tuwaijri, M., Chishima, T., et al (2000) Proc. Natl. Acad. Sci. USA 97, 1206-11).
The mice were perfused through the heart 3 hours after the peptide injection and tissues removed for examination. […]

quadriceps muscle = test: Homing to muscle crush injury; format: in vivo, mouse
Description: (§1) The wire injury of the mouse femoral artery was induced as previously described (Komatsu, M. & Ruoslahti, E. (2005) Nat Med. (2005) 11:1346-1350). Thirty minutes after the wire injury, 250 μg of fluorescein-conjugated peptides were injected i.v. Muscle injuries were induced in mice by applying a crush injury to the quadriceps muscle, and 500 μg fluorescein-conjugated peptides were injected i.v. 48 hours later. Skin incisions were studied similarly. The mice were perfused through the heart 4 hours after the peptide injection, and tissues were excised, fixed in 4% paraformaldehyde, and embedded in OCT.

skin = test: Homing to skin incision; format: in vivo, mouse
Description: as §1

mouse femoral artery = test: Homing to wire-injured femoral artery; format: in vivo
Description: as §1

mitochondrial membranes = conditions: concentration of 10 μM; cited from earlier work
fibrinogen = target: T1, fibrinogen (Homo sapiens, UniProt P02671+P02675+P02679); conditions: reported, Akerman, Pilch et al. 2005; cited from earlier work
T1 sequence (P02671 20-629 limits assumed): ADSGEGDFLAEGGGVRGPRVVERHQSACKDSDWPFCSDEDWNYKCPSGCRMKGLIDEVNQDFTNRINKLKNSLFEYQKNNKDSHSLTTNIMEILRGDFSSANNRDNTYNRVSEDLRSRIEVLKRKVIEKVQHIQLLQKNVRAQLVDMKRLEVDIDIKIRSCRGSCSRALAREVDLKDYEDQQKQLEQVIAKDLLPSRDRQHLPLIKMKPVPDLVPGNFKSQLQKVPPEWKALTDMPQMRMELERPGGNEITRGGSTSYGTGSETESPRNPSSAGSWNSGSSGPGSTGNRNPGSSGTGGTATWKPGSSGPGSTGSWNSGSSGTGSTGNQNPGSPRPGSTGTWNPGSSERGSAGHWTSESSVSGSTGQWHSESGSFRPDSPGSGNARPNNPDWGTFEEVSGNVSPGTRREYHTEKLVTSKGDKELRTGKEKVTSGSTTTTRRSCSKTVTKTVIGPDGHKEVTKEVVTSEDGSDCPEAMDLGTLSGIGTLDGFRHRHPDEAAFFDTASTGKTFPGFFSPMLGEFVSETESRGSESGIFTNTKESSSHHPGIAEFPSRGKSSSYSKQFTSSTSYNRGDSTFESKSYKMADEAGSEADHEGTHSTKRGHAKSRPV
T1 sequence (P02675 31-491): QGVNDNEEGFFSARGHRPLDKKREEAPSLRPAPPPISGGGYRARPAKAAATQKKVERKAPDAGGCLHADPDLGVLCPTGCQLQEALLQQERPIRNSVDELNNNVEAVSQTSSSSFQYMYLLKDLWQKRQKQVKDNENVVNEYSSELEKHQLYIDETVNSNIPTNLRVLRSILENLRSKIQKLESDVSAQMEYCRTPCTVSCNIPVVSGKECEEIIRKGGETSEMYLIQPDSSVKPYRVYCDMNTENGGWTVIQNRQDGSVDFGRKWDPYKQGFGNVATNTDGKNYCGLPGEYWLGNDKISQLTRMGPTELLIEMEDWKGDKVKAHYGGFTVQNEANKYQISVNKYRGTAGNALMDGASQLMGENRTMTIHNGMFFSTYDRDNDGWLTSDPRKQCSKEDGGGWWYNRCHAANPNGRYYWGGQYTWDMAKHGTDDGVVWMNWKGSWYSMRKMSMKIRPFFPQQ
T1 sequence (P02679 27-453): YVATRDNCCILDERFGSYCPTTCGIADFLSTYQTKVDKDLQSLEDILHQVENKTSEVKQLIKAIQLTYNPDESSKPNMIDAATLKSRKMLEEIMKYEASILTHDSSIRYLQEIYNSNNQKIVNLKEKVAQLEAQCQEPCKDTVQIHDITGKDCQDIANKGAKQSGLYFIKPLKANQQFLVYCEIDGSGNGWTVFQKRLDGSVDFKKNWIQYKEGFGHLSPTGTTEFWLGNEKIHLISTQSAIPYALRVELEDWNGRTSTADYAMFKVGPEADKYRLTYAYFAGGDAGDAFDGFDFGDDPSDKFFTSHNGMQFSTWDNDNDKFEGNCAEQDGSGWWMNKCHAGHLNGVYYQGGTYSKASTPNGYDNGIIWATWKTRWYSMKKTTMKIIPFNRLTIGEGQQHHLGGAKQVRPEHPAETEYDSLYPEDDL

fibronectin = conditions: reported, Akerman, Pilch et al. 2005; cited from earlier work
[3] = 500 μg fluorescein-conjugated peptide i.v., 3 h

## CNAGESSKNC (also: cyclic, ring type not given here, fluorescein conjugate, site not given here) [CLT2, cyclic decapeptide from phage library screened on plasma clots; tested as fluorescein conjugate]
[1]
  cytotoxicity for endothelial cells: nor cytotoxic
[2]; [3]
  fluorescence in control / healthy organs: not in control organs
  fluorescence in tumors, whole tissues under blue light: intense fluorescence; also recorded: strong fluorescence
[2]; fluorescein-conjugated peptide i.v., 3 h, 400×
  histological distribution of peptide fluorescence within the tumor: distributed in a network pattern
[2]; unlabeled CLT2 in 5 fold excess
  tumor homing / fluorescence on co-injection with unlabeled CLT2: strongly reduced
Quadriceps muscle; injury 48 hours earlier, 500 μg i.v.
  homing to muscle crush injury: accumulate
Quadriceps muscle; uninjured
  homing to normal muscle: negative
skin; incision 48 hours earlier
  homing to skin incision: accumulate
skin; uninjured
  homing to normal skin: negative
Mouse femoral artery; uninjured
  homing to normal (intact) femoral artery: not to a normal femoral artery
Mouse femoral artery; wire injury 30 min earlier, 250 μg i.v.
  homing to injured femoral artery: homes

## D(KLAKLAK)2 (KLAKLAKKLAKLAK; D-amino acids) [antimicrobial peptide]
Mitochondrial membranes
  mitochondrial swelling: marked mitochondrial swelling

## KAREC (also: fluorescein conjugate, site not given here) [reference compound]
[2]; [3]
  fluorescence in tumors, whole tissues under blue light: essentially no fluorescence

## Anginex
fibrinogen
  aggregate formation in presence of fibrinogen: form aggregates
fibronectin
  aggregate formation in presence of fibronectin: form aggregates

— US9522198B2, “Methods and compositions related to targeting tumors and wounds” (Sanford-Burnham Medical Research Institute, priority 2006, dated 2016)
